# Where two headings read alike, the source gives them in different places. Ends that are not written are not given here.
# Columns and labels:
# E. coli TOP10 = experiment: microbe, parasite or virus in culture; format: cell-based, Escherichia coli; settings: for MIC [µM] 25%MHB: 25% (diluted) Mueller-Hinton Broth; for MIC [µM] 25%MHB / MIC [µM] 100%MHB: 5 × 10^5 cells ml^−1, twofold dilutions, 18 h, 37 °C, no shaking, OD read-out, MIC = < 5% of OD of growth control, mean, n = 3; for MIC [µM] 100%MHB: 100% Mueller-Hinton Broth; for MIC: Escherichia coli, TOP10, read-out: MIC of ampicillin (control) against E. coli TOP10, control
# Method: On the same day at which MIC assays were executed, purified peptides were thawed and the concentration was determined by HPLC as described before. […] The cultures were then supplemented with 20% glycerol, aliquoted, and frozen at − 80 °C. […] Then the peptides were added by the liquid handling system in twofold dilutions using minimum of 100 µg ml^−1 as the highest concentration. MICs were determined as broth microdilution assay in 384-well flat bottom polypropylene plates (Falcon 96-Well Flat-Bottom Microplate) adapted from the protocol of Wiegand et al.[43]. The plates were sealed airtight and incubated for 18 h without shaking at 37 °C before reading the OD using a Tecan Infinite 200 PRO plate reader. […] MIC experiments were performed at least in triplicate.
# human erythrocytes = experiment: Hemolysis assay using chemically synthesized peptides; format: cell-based; settings: for Hemolysis at 16MIC: peptide at 16 × MIC; for Hemolysis at 16MIC / Hemolysis at MIC: human erythrocytes 1:50 in DPBS, 1 h, 37 °C, absorbance 540 nm, relative to full lysis with […] Triton-X100, n = 4; for Hemolysis at MIC: peptide at MIC; for hemolytic activity, in words: MIC/16 to 16 × MIC; for Hemolysis at 16MIC: relative to full lysis with 2.5% Triton-X100
# Method: Two samples of human blood were obtained from a blood bank (Blutspendezentrum SRK at the University Hospital Basel). The samples were pooled and erythrocytes were isolated by repeated centrifugation at 500×g for 10 min, removal of the blood plasma and resuspending the remaining cells in an equal volume of DPBS. Following last resuspension, erythrocytes were diluted 1:50 in DPBS. […] To each well of the dilution plate, 100 μl of the red blood cells suspension was added. The plate was incubated for 1 h at 37 °C. […] The absorbance was measured at 540 nm using an Infinite M1000 PRO plate reader (Tecan) and corrected by the measurements from the untreated wells. The lysis of each peptide concentration was expressed relative to the lysis control (set as 100% lysis). […]
# [1] = system: Klebsiella pneumonia ATCC 13883; format: cell-based; settings: chemically synthesized peptide, mean, n = 3
# Method: (§1) On the same day at which MIC assays were executed, purified peptides were thawed and the concentration was determined by HPLC as described before. E. coli TOP10 cells were grown in Mueller Hinton Broth (MHB) or diluted MHB (25% of the original strength) overnight to stationary phase. Diluted MHB has been frequently used to assay antimicrobial peptides. The cultures were then supplemented with 20% glycerol, aliquoted, and frozen at − 80 °C. […] Then the peptides were added by the liquid handling system in twofold dilutions using minimum of 100 µg ml^−1 as the highest concentration. MICs were determined as broth microdilution assay in 384-well flat bottom polypropylene plates (Falcon 96-Well Flat-Bottom Microplate) adapted from the protocol of Wiegand et al.[43]. The plates were sealed airtight and incubated for 18 h without shaking at 37 °C before reading the OD using a Tecan Infinite 200 PRO plate reader. […] MIC experiments were performed at least in triplicate.
# [2] = system: Pseudomonas aeruginosa ATCC 47085; format: cell-based; settings: chemically synthesized peptide, mean, n = 3
# Method: as §1
# E. coli ATCC 25922 = format: cell-based; settings: chemically synthesized peptide, mean, n = 3
# Method: as §1
# [3] = system: Staphylococcus aureus ATCC 29213; format: cell-based; settings: chemically synthesized peptide, mean, n = 3
# Method: as §1
# [4] = system: Enterococcus faecalis ATCC 29212; format: cell-based; settings: chemically synthesized peptide, mean, n = 3
# Method: as §1
# [5] = Precipitation observed in the membrane damage assay; format: physicochemical; settings: 100% MHB, printed as higher than 4xMIC (16 µM)
# Method: The bacterial strain suspension was furthermore supplemented with a final concentration of 1 µg ml^−1 propidium iodide just before pipetting the assay. […] The fractions of PI-positive and GFP-positive were determined with the same gate for all populations using the FlowJo V10 software (BD Biosciences). The extracellular membrane integrity assay was performed in biological duplicates analyzing at least 10,000 cells in each experiment.
# E.coli = system: E.coli; set-up: method as in earlier work; settings: ref supplement references 1-15 (Table S1); cited from earlier work
# bacteria = system: bacteria; set-up: method as in earlier work; settings: ref supplement references 1-15 (Table S1); cited from earlier work
Compound,MIC [µM] 25%MHB (E. coli TOP10),MIC [µM] 100%MHB (E. coli TOP10),Hemolysis at 16MIC (human erythrocytes),Hemolysis at MIC (human erythrocytes),also measured
CC[C@H](C)[C@H](NC(=O)[C@H](Cc1c[nH]c2ccccc12)NC(=O)[C@H](CCCCN)NC(=O)[C@@H](NC(=O)[C@H](CC(C)C)NC(=O)[C@H](CC(=O)O)NC(=O)CNC(=O)[C@@H](NC(=O)[C@@H](NC(=O)[C@H](CO)NC(=O)[C@@H](NC(=O)[C@@H](NC(=O)[C@H](CC(=O)O)NC(=O)[C@H](C)NC(=O)[C@H](C)NC(=O)[C@@H](N)CCSC)[C@@H](C)CC)[C@@H](C)CC)[C@@H](C)O)[C@@H](C)CC)C(C)C)C(=O)N[C@H](C(=O)N[C@@H](CC(=O)O)C(=O)N[C@H](C(=O)N[C@H](C(=O)N[C@@H](CC(N)=O)C(=O)N[C@@H](CCCCN)C(=O)N[C@@H](Cc1ccccc1)C(=O)N[C@@H](CCCCN)C(=O)O)C(C)C)[C@@H](C)O)[C@@H](C)CC [Delta lysin I 3458 NCBI],> 60 µM,> 60 µM,–,–,–
"CC1(C)S[C@@H]2[C@H](NC(=O)[C@H](N)c3ccccc3)C(=O)N2[C@H]1C(=O)O [ampicillin, reference compound]",–,–,–,–,MIC (E. coli TOP10; 25% MHB): 17 µM; MIC (E. coli TOP10; 100% MHB): 34 µM
AIAKLVAKFGWPIVKKYYKQIMQFIGEGWAINKIIEWIKK [Enterocin RJ-11 3780 NCBI],1 µM,0.5 µM,103.3%,22.7%,hemolysis at the MIC compared to the Triton-X100 control (toxicity towards human erythrocytes) (human erythrocytes): > 5%
GFKDWIKGAAKKLIKTVASSIANE [Ascaphin-6 9286 APD],1 µM,0.8 µM,1.4%,0%,–
GKFSGFAKILKSIAKFFKGVGKVRKGFKEASDLDKNQ [Oxyopinin 2b 9690 APD],0.5 µM,0.5 µM,63.4%,0.7%,"hemolytic activity, in words (human erythrocytes): displayed hemolytic activity at higher concentrations"
GWFKKAWRKVKHAGRRVLDTAKGVGRHYLNNWLNRYR [HFIAP-1 4545 NCBI],0.5 µM,0.5 µM,18.9%,4.1%,"MIC [µm] in MHB [1]: 0.4 µM; MIC [µm] in MHB [2]: 0.7 µM; MIC [µm] in MHB (E. coli ATCC 25922): 0.7 µM; MIC [µm] in MHB [3]: 1.4 µM; MIC [µm] in MHB [4]: 5.6 µM; hemolytic activity, in words (human erythrocytes): displayed hemolytic activity at higher concentrations"
KRFKKFFKKLKKSVKKRAKKFFKKPRVIGVSIPF [BF-CATH 9639 APD],1 µM,1 µM,4.8%,2.1%,–
LKDKVKSMGEKLKQYIQTWKAKF [Latarcin 4a 5147 APD],5 µM,8 µM,2.8%,0.2%,–
Melittin: highly membrane damaging peptide used as a control [reference compound],–,–,–,–,concentration above which the peptide started to precipitate [5]: > 16 µM; hemolysis at the MIC compared to the Triton-X100 control (toxicity towards human erythrocytes) (human erythrocytes): > 5%
"Pyrrhocoricin PARENT: PARENT peptide on the APD, a ribosomal inhibitor",–,–,–,–,Previously reported activity against E.coli of parent (E.coli): active; Reported antibacterial mechanism of action of parent (bacteria): Translation inhibition
TALKGAAKELASTYQH [Maximin 3 5468 NCBI],> 60 µM,> 60 µM,–,–,–
VDKGGYLPRPTPPRPVYR [Pyrrhocoricin 7122 NCBI],8 µM,20 µM,2.3%,1.1%,–
VKLIQIRIWIQYVTVLQMFSMKTKQ [Meucin-25 11598 APD],> 60 µM,> 60 µM,–,–,–
VSKIKKYLKYKDRI [P-10 8942 APD],13 µM,> 60 µM,2.2%,0.5%,–
